Results: article PMC6199744, “Development of Chemical Proteomics for the Folateome and Analysis of the Kinetoplastid Folateome” (ACS Infectious Diseases, 2018)
Where two headings read alike, the source gives them in different places.

Columns and labels:
Type in all cases: binding
[1] = molecular target: T1, HeLa cell extract proteins (Homo sapiens, UniProt P51858)
T1 construct: endogenous in cells; host or cells: HeLa cell extract

[2] = molecular target: T2, HeLa cell extract proteins (Homo sapiens, UniProt P31949)
T2 construct: endogenous in cells; host or cells: HeLa cell extract
T2 sequence (P31949 1-105): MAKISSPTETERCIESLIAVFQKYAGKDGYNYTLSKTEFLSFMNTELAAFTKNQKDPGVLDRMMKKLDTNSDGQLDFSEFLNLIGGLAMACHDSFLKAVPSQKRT

[3] = molecular target: T3, HeLa cell extract proteins (Homo sapiens, UniProt O15269)
T3 construct: endogenous in cells; host or cells: HeLa cell extract
T3 sequence (O15269 1-473): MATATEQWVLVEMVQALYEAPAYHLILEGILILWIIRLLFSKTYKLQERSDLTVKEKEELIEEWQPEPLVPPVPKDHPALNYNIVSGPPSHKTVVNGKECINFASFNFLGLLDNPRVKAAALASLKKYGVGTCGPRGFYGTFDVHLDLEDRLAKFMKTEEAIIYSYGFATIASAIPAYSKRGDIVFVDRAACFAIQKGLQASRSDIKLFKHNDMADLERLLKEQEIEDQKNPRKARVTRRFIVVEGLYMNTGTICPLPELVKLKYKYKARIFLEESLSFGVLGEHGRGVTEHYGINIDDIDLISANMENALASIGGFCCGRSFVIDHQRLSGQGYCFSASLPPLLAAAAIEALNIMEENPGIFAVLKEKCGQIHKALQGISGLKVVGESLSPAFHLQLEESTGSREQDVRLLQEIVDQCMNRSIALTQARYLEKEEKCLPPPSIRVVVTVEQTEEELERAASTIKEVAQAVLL

[4] = molecular target: T4, HeLa cell extract proteins (Homo sapiens, UniProt P49720)
T4 construct: endogenous in cells; host or cells: HeLa cell extract
T4 sequence (P49720 1-205): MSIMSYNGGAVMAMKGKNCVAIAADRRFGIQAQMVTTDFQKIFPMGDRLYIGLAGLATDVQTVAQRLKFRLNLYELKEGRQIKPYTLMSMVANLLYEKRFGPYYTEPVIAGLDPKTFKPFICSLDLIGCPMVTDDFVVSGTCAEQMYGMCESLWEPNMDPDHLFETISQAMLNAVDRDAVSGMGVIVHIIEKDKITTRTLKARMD

[5] = molecular target: T5, HeLa cell extract proteins (Homo sapiens, UniProt Q9NR09)
T5 construct: endogenous in cells; host or cells: HeLa cell extract

[6] = molecular target: T6, HeLa cell extract proteins (Homo sapiens, UniProt Q9H2U1)
T6 construct: endogenous in cells; host or cells: HeLa cell extract
T6 sequence (Q9H2U1 1-1008): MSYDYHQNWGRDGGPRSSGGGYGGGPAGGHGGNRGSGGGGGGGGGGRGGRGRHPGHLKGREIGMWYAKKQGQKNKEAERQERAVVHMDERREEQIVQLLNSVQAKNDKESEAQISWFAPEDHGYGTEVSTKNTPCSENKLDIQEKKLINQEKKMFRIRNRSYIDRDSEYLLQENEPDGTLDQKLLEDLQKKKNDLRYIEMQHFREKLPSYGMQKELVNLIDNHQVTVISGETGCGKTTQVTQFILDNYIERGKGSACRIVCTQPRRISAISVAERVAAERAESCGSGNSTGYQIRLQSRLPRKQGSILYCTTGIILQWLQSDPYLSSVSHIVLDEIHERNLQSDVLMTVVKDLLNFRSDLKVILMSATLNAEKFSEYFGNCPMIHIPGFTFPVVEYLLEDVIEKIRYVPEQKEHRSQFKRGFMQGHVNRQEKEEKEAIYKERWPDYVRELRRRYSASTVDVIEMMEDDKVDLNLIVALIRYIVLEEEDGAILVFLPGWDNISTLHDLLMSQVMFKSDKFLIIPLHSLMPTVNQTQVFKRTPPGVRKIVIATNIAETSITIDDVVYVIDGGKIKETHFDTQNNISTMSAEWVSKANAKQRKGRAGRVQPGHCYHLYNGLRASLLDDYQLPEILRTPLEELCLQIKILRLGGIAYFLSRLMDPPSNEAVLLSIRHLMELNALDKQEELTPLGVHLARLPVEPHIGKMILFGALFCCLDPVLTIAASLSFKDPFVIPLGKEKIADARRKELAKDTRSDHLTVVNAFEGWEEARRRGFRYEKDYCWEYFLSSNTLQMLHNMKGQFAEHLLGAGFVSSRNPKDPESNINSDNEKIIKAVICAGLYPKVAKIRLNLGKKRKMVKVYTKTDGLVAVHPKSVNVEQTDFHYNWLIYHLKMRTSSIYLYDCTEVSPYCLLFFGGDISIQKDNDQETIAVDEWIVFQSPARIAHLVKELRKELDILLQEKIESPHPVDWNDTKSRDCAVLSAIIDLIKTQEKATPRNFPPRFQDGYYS

[7] = molecular target: T7, HeLa cell extract proteins (Homo sapiens, UniProt Q9Y3F4)
T7 construct: endogenous in cells; host or cells: HeLa cell extract
T7 sequence (Q9Y3F4 1-350): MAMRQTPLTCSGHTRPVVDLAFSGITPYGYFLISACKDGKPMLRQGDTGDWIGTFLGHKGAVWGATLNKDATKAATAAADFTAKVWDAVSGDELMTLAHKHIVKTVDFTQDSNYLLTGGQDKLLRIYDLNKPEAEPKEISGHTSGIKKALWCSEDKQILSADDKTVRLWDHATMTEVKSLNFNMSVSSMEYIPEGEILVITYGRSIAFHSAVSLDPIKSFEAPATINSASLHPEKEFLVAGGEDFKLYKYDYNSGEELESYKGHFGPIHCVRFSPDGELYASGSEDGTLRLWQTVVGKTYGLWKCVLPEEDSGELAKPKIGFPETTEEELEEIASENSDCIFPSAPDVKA

[8] = molecular target: T8, HeLa cell extract proteins (Homo sapiens, UniProt Q5SRE5)
T8 construct: endogenous in cells; host or cells: HeLa cell extract
T8 sequence (Q5SRE5 whole entry): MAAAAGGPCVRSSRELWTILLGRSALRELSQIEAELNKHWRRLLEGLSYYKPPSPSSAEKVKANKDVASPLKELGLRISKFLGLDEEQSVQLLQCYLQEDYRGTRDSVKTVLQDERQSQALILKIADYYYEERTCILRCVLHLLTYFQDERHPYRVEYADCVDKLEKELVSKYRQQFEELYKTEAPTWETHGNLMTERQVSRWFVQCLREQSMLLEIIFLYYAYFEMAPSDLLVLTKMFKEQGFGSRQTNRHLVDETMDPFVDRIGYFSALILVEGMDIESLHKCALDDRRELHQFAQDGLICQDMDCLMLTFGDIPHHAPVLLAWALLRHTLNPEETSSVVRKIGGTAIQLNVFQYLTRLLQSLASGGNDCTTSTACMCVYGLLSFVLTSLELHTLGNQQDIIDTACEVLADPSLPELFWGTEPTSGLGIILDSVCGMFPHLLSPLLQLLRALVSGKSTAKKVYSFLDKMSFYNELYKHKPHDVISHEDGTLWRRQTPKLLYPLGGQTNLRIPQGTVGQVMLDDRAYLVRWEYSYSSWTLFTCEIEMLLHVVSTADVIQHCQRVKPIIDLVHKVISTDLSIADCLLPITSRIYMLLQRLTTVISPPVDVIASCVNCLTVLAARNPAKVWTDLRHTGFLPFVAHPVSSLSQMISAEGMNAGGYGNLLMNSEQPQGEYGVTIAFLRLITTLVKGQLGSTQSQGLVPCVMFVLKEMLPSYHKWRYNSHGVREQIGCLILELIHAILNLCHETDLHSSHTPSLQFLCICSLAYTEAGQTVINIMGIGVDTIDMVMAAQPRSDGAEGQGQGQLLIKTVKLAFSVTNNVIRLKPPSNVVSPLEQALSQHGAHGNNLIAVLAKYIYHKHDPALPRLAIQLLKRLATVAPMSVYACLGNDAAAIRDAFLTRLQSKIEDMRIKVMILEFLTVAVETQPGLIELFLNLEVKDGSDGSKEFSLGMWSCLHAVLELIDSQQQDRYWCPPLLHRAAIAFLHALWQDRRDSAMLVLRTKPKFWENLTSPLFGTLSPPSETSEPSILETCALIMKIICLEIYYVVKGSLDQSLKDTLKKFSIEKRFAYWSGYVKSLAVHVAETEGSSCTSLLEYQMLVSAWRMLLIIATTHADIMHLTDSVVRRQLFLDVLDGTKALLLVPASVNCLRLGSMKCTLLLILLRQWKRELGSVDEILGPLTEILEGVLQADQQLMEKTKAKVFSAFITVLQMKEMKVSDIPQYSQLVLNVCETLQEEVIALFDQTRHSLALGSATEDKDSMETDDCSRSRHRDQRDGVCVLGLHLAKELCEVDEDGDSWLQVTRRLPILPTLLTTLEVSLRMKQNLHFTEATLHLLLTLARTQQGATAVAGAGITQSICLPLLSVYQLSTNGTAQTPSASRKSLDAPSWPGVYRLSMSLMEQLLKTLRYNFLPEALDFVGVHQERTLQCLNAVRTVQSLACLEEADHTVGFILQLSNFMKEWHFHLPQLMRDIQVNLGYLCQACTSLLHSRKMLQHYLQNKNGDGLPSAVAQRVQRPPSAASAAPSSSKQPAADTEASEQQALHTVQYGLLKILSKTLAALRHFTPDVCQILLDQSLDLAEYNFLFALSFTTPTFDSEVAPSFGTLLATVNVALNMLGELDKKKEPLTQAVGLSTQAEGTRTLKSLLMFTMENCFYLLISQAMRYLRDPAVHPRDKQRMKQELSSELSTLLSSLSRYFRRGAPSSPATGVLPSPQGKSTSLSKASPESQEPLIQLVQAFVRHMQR

[9] = molecular target: T9, HeLa cell extract proteins (Homo sapiens, UniProt P05387)
T9 construct: endogenous in cells; host or cells: HeLa cell extract
T9 sequence (P05387 whole entry): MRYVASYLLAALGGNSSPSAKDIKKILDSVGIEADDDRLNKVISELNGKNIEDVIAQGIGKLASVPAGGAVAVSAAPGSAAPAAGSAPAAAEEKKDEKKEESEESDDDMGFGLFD

[10] = molecular target: T10, HeLa cell extract proteins (Homo sapiens, UniProt Q92734)
T10 construct: endogenous in cells; host or cells: HeLa cell extract
T10 sequence (Q92734 whole entry): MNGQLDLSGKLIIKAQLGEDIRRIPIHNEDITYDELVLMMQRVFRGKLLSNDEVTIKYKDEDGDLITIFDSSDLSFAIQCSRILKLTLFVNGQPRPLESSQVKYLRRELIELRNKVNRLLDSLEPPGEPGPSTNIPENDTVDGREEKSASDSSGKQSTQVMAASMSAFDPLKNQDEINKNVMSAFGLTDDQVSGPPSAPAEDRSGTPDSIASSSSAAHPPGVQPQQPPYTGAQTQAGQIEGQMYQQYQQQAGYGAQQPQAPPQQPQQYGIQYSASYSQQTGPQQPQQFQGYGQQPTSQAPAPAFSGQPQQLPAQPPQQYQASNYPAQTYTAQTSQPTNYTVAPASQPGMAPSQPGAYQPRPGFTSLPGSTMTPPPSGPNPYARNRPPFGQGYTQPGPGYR

[11] = molecular target: T11, HeLa cell extract proteins (Homo sapiens, UniProt P20674)
T11 construct: endogenous in cells; host or cells: HeLa cell extract
T11 sequence (P20674 42-150): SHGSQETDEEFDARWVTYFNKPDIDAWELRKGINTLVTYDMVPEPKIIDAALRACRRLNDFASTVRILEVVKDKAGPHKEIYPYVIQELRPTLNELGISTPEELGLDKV

[12] = HeLa, protein BIRC6 (B[…] REPEAT-CONTAINING 6)
[13] = HeLa, protein DHX36 (ISOFORM 1 OF PROBABLE ATP-DEPENDENT RNA HELICASE DHX36)
[14] = HeLa, protein S100A11 (PROTEIN S100-A11.)

T1 sequence (P51858 whole entry): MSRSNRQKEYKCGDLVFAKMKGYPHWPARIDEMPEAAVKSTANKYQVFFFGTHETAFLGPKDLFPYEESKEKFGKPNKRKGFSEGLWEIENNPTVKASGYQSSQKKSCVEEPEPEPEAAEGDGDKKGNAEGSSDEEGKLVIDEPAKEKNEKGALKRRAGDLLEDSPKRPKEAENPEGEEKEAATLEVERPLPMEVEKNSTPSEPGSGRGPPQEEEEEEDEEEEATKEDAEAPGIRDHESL

Structure (SMILES) | fold changes relative to vehicle control ([1]; HeLa, protein HDGF) | fold changes relative to vehicle control ([2]; HeLa, protein S100A11) | fold changes relative to vehicle control ([3]; HeLa, protein SPTLC1) | fold changes relative to vehicle control ([4]; HeLa, protein PSMB3) | fold changes relative to vehicle control [5, 12] | fold changes relative to vehicle control [6, 13] | fold changes relative to vehicle control ([7]; protein STRAP, HeLa) | fold changes relative to vehicle control ([8]; HeLa, captured protein NUP188) | fold changes relative to vehicle control ([9]; protein RPLP2, HeLa) | fold changes relative to vehicle control ([10]; HeLa, captured protein TFG) | fold changes relative to vehicle control ([11]; HeLa, captured protein COX5A) | fold changes relative to vehicle control ([1]; protein HDGF, HeLa) | fold changes relative to vehicle control [2, 14] | fold changes relative to vehicle control ([3]; captured protein SPTLC1, HeLa) | fold changes relative to vehicle control ([4]; protein PSMB3, HeLa) | fold changes relative to vehicle control ([5]; HeLa, protein BIRC6) | fold changes relative to vehicle control ([6]; protein DHX36, HeLa) | fold changes relative to vehicle control ([8]; HeLa, protein NUP188) | fold changes relative to vehicle control ([10]; protein TFG, HeLa) | fold changes relative to vehicle control ([11]; captured protein COX5A, HeLa) | other results
Nc1nc2c(c(=O)[nH]1)N(C=O)C(CNc1ccc(C(=O)N[C@@H](CCC(=O)O)C(=O)O)cc1)CN2 (some centres unmarked) [LEU, leucovorin] | 1.06 | 1.32 | 0.9 | 1.13 | 1.08 | 1.12 | 0.85 | 1.13 | 0.82 | 1.01 | 1.23 | – | – | – | – | – | – | – | – | – | –
NCCCNc1ccc(C(=O)NC(CCC(=O)O)C(=O)O)cc1 (centres unmarked) [compound 7] | 0.97 | 1.2 | 1.03 | 0.92 | 1.12 | 1.03 | 0.86 | 1.07 | 0.82 | 1.06 | 1.63 | – | – | – | – | – | – | – | – | – | –
CCCCCCOc1cccc(Cc2cnc(N)nc2N)c1 [compound 2] | – | – | – | – | – | – | 1.28 | – | 1.65 | – | – | 2.45 | 2.47 fold | 1.03 | 1.53 | 0.92 | 0.91 | 1.08 | 1.16 | 0.91 | –
CCCCCCOc1ccc(Cc2cnc(N)nc2N)cc1 [compound 1] | – | – | – | – | – | – | 1.07 | – | 0.76 | – | – | 1.26 | 1.66 fold | 0.8 | 1.13 | 1.06 | 1.17 | 1.07 | 0.96 | 0.98 | –
Nc1nc2cccc(-c3ccccc3)c2n1Cc1ccc(Cl)c(Cl)c1 [compound 3] | – | – | – | – | – | – | 1.11 | – | 0.81 | – | – | 0.9 | 1.08 fold | 1.09 | 0.92 | 1.12 | 0.98 | 1.07 | 1.02 | 1.18 | –
NCCOCCOCC(=O)Nc1nc2ncc(CNc3ccc(C(=O)NC(CCC(=O)O)C(=O)O)cc3)nc2c(=O)[nH]1 (centres unmarked) [compound 6] | 1.31 | 1.59 | 0.95 | 1.12 | 1.06 | 1.07 | 1.08 | 1.17 | 1.04 | 1.01 | 1.87 | – | – | – | – | – | – | – | – | – | –
Nc1nc2[nH]cc(CCc3ccc(C(=O)N[C@@H](CCC(=O)O)C(=O)O)cc3)c2c(=O)[nH]1 [PTX, pemetrexed] | – | – | – | – | – | – | – | – | – | – | – | – | – | – | – | – | – | – | – | – | fold changes relative to vehicle control [1]: 1.21; fold changes relative to vehicle control [2]: 1.29; fold changes relative to vehicle control [3]: 0.95; fold changes relative to vehicle control [4]: 0.99; fold changes relative to vehicle control [5]: 1; fold changes relative to vehicle control [6]: 0.99; fold changes relative to vehicle control [7]: 1; fold changes relative to vehicle control [8]: 1.17; fold changes relative to vehicle control [9]: 0.94; fold changes relative to vehicle control [10]: 1.05; fold changes relative to vehicle control [11]: 1.5
